The source of these data is US5605905A, “Antitumoral compounds” (Universidad Complutense de Madrid, priority 1992, dated 1997).

Broadly, the IC50 is the concentration that inhibits the measured activity by half. Low values mean inhibition by little substance, high ones a need for much substance.

In one assay the test system is P-388 cells. The assay can be described thus: Assay against P-388 cells (lymphoid neoplasm from DBA/2 mouse), cell count after three days. It is filed as cell-based. Conditions: P388, 72 h, 1×10^4 cells per well, three days of incubation, triplicate. As for the experimental part: Compounds were diluted in DMSO/MeOH/Acetone (1:4.5:4.5) and they were tested at different concentrations. The solvent was allowed to evaporate before the cells were seeded.
The following antitumoral assay, employing the current screening protocol has been carried out using the following cell line:
P-388 (lymphoid neoplasm from DBA/2 mouse).
Assay Against P-388 Cells (Lymphoidneoplasm from DBA/2 Mouse )
P-388 cells were seeded into 16 mm wells at 1×10^4 cells per well in 1 ml aliquots of MEM 10C containing different concentrations of the compound. All determinations were carried out in triplicate. A separate set of cultures without drug was counted daily to ensure that the cells remained in exponential growth over the period of observation. After three days of incubation, cells were counted and the IC50 was determined.

The subject of a further assay is Gram positive bacteria. Conditions: background, literature; cited from earlier work.
Another assay concerns thymidylate synthetase. The conditions noted are these: background, literature; cited from earlier work.
The conditions of assay [1]: background statement, no test described; cited from earlier work.

Each structure is given as a SMILES string. Values after ≈ are worked out from the molar mass of the structure shown.

As to `CCC1C(C)=CNC2=C1C(=O)c1c(C)cc(=O)[nH]c1C2=O` (centres unmarked) [Compound 1, 4,6-dimethyl-5-5,8-dihydro-1H-1,8-diazaanthracene-2,9,10-trione], inhibition in the assay on P-388 cells was half-maximal at 1 µg/mL (≈ 3.52 µM) (IC50).
Still for that read-out and setting: next, `Cc1cc(=O)[nH]c2c1C(=O)C1=C(NC=CC1c1ccccc1)C2=O` (centres unmarked) [Compound 2, 4-methyl-5-phenyl-5,8-dihydro-1H-1,8-diazaanthracene-2,9,10-trione]: 0.25 µg/mL (≈ 0.785 µM); `Cc1cc(=O)[nH]c2c1C(=O)C1=C(NC=CC1c1ccc(N(C)C)cc1)C2=O` (centres unmarked) [Compound 3, 5-(4-Dimethylamino-phenyl) 4-methyl-5,8-dihydro-1H-1,8-diazaanthracene-2,9,10-trione]: 20 µg/mL (≈ 55.3 µM); `Cc1ccnc2c1C(=O)c1c(C)cc(=O)[nH]c1C2=O` [Compound 4, 4,5-dimethyl-1H-1,8-diazaanthracene-2,9,10-trione]: 1 µg/mL (≈ 3.93 µM).
On the same count and under the same terms, for `CCc1cnc2c(c1)C(=O)c1c(C)cc(=O)[nH]c1C2=O` [Compound 5, 6-ethy-4-methyl-1H-1,8-diazaanthracene-2,9,10-trione] the value was 0.5 µg/mL (≈ 1.86 µM); for `Cc1cc(=O)[nH]c2c1C(=O)c1c(-c3ccc(N(C)C)cc3)ccnc1C2=O` [Compound 6, 5-(p-dimethylaminophenyl)-4-methyl-1H-1,8-diazaanthracene-2,9,10-trione], 1 µg/mL (≈ 2.78 µM); for `CCc1cc2c([nH]c1=O)C(=O)c1ncc(C)cc1C2=O` [Compound 7, 3-ethyl-6-methyl-1H-1,8-diazaanthracene-2,9,10-trione], 0.2 µg/mL (≈ 0.746 µM).
On the same count and under the same terms, for `Cc1cc2c([nH]c1=O)C(=O)c1ccccc1C2=O` [Compound 8, 3-Methyl-1H-1azaanthracene-2,9,10-trione] the value was 0.2 µg/mL (≈ 0.836 µM).
In the case of `CCCc1c2c([nH]c(=O)c1C)C(=O)c1[nH]c(=O)c(C)c(CCC)c1C2=O` [Diazaquinomicyn A], in the assay on Gram positive bacteria, the “activity against Gram positive bacteria” value is “good activity”. The “capacity to inhibit the thymidylate synthetase” value in the assay with thymidylate synthetase is recorded as “capacity to inhibit”. For the same compound, the antitumoral activity result in assay [1] was “inactive”.
